Legend:
Solubility = type: physicochemical
[1] = target: T1, aryl hydrocarbon receptor (AhR) (Mus musculus, UniProt P30561); assay: ITE biological activity: AhRR gene expression in BMDCs by qPCR; type: cell-based; conditions: 24 h, 14 μmol·L^−1 ITE or equivalent amount as NPs
T1 sequence (P30561 10-848): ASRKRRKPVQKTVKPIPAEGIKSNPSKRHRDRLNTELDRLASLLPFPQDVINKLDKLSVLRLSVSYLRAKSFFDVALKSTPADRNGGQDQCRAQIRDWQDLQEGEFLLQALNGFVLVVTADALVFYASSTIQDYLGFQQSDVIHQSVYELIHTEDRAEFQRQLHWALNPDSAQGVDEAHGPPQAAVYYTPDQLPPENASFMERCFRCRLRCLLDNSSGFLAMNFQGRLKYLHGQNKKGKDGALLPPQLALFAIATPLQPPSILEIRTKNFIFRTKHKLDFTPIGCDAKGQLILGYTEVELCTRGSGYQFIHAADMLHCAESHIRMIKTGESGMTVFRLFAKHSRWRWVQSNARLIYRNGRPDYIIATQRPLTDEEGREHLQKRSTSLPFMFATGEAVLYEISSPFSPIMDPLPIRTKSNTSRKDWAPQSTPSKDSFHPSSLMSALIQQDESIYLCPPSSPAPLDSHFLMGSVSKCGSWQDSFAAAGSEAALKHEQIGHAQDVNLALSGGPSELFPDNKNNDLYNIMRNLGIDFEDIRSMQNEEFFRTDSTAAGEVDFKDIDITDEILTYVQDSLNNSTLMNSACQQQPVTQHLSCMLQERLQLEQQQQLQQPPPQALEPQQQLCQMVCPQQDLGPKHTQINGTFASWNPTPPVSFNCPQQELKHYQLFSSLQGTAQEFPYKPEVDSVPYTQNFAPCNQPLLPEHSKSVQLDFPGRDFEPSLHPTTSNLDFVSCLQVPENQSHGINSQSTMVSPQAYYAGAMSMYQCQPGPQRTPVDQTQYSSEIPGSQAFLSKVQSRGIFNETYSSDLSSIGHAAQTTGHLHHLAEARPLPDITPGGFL
Method: Mouse bone marrow dendritic cells: BMDCs were prepared from progenitor cells isolated from the femurs and tibias of female mice between 8 and 10 wk of age, as previously described in Inaba et al. (“Generation of large numbers of dendritic cells from mouse bone marrow cultures supplemented with granulocyte/macrophage colony-stimulating factor”; J Exp Med 1992, 176 (6), 1693-702). Bone marrow cells were plated on 15 cm petri dishes cell culture for a final volume of 20 mL per plate in Iscove's Modified Dulbecco's Medium (IMDM) containing 10% FCS, penicillin/streptomycin 100 μg/ml, L-Glutamine 2 mmol.L^−1 and β-mercapthoethanol 50 μmol.L^−1, and supplemented with 10 ng/ml murine GM-CSF (R&D Systems) for 8 days. Half of the medium was replaced on day 4 of culture.
ITE biological activity. On day 7 of BMDC culture, cells were incubated 24 h with 14 μmol·L^−1 ITE in 0.2% DMSO and equivalent amount of ITE as USPIO-PEG-ITE NPs in water. On day 8, total RNA was prepared by the RNAspin mini kit (GE Healthcare). cDNA was obtained using the RevertAid RT Reverse Transcription Kit (Thermo Scientific) with 1 μg of total RNA. Quantitative PCR (qPCR) was performed with the SYBR Green method using Takyon ROX qPCR SYBR MasterMix blue dTTP (Eurogentec).

[2] = Quantification of NP uptake in organs by VSM magnetometry; type: in vivo, NOD and B6 mice
Method: For mechanistic studies, MRI and histological studies, 3 B6 mice/time points aged 10 and 12 weeks were used as control. 3 Female NOD mice/time points were used as pre-diabetic mice between 10 and 12 weeks of age. NPs were administrated intravenously (i.v.) as a bolus of 200 μmolFe/kg diluted in 200 μL of vehicle (NaCl 0.9%/Glucose 5%).
Quantification of NP uptake in organs by VSM: Pancreas, lung, liver, spleen, kidneys and PLN were collected 1 h, 5 h, 24 h, 48 h and 72 h after intravenous injection of USPIO-PEG-ITE-P3UMPI (200 μmolFe/kg) or vehicle (NaCl 0.9%/Glucose 5%) in NOD and B6 mice. Collected organs were frozen in liquid nitrogen, lyophilized and ground to a powder using a mortar and pestle. Sample magnetism was analyzed by a VSM (VSM Quantum Design, Versalab) at room temperature. Amount of iron per organ was calculated from the NP magnetization at saturation (expressed in emu/g of iron).

COC(=O)c1csc(C(=O)c2c[nH]c3ccccc23)n1 [ITE, 2-(1′H-indole-3′-carbonyl)-thiazole-4-carboxylic acid methyl ester]
Solubility (Solubility): soluble only in DMSO and ethanol | AhRR expression [1]: induced | Estimation of drug dose released in pancreas: ITE ([2]; B6 mice, 1 H after iv injection of USPIO-PEG-ITE-P3UmPI, considering no drug release before pancreas targeting): 0.39 mmol | Estimation of drug dose released in pancreas: ITE ([2]; B6 mice, 5 H after iv injection): 0.99 mmol | Estimation of drug dose released in pancreas: ITE ([2]; B6 mice, 24 H after iv injection): 0 mmol | Estimation of drug dose released in pancreas: ITE ([2]; B6 mice, 48 H after iv injection): 0.15 mmol | Estimation of drug dose released in pancreas: ITE ([2]; B6 mice, 72 H after iv injection): 0.33 mmol | Estimation of drug dose released in pancreas: ITE ([2]; NOD mice, 1 H after iv injection): 1.54 mmol | Estimation of drug dose released in pancreas: ITE ([2]; NOD mice, 5 H after iv injection): 2.98 mmol | Estimation of drug dose released in pancreas: ITE ([2]; NOD mice, 24 H after iv injection): 0.37 mmol | Estimation of drug dose released in pancreas: ITE ([2]; NOD mice, 48 H after iv injection): 1.78 mmol | Estimation of drug dose released in pancreas: ITE ([2]; NOD mice, 72 H after iv injection): 0.91 mmol

Reference: US20210220481A1, “BIOCOMPATIBLE TOLEROGENIC NANOPARTICLES” (INSERM (Institut National de la Santé et de la Recherche …, priority 2018, published 2021)
